The source of these data is article PMC7827382, “Sterols and Triterpenes from Dobera glabra Growing in Saudi Arabia and Their Cytotoxic Activity” (Plants, 2021).

Assay [1] concerns hepatocellular carcinoma cells (HepG-2). The experiment in a line: Cytotoxic activity, MTT assay, HepG-2. In kind it is cell-based, human. Conditions: for IC50: Homo sapiens, HepG2, 48 h, read-out: HepG-2 IC50.
Assay [2] has as its system African green monkey kidney cell line (Vero-B). The experiment in a line: Cytotoxic activity, MTT assay, normal Vero-B cells. In kind it is cell-based. Conditions: for IC50: Chlorocebus sabaeus, Vero B, read-out: VERO-B IC50.
Assay [3] deals with prostate carcinoma cells (PC-3). The experiment in a line: Cytotoxic activity, MTT assay, PC-3. The class given is cell-based, human. Conditions: for IC50: Homo sapiens, 48 h, read-out: PC-3 IC50. A general note: Tetrazolium assays rely on reduction of a dye to a coloured formazan, in cell work by metabolically active cells.
For assay [4], the system named is colorectal cancer cell (HCT-116). The experiment in a line: Cytotoxic activity, MTT assay, HCT-116. The class given is cell-based, human. The conditions noted are these: for IC50: Homo sapiens, HCT-116, 48 h, read-out: HCT-116 IC50.
Assay [5] concerns HCT-116, PC-3, and HepG-2. The experiment in a line: Antitumor activity against cancer cell lines, summary in words. In kind it is cell-based, human. Conditions: HCT-116, PC-3 and HepG-2 cell lines.
In a further assay the test system is Vero cell line. The experiment in a line: Wound-healing assay. The class given is cell-based, African green monkey. Conditions: 35 or 70 µM; up to 48 h.
The target in a further assay is phosphodiesterase I (Crotalus adamanteus, UniProt J3SEZ3). The experiment in a line: biochemical. The arrangement: species or system snake.
Sequence of phosphodiesterase I (J3SEZ3 24-851 limits assumed): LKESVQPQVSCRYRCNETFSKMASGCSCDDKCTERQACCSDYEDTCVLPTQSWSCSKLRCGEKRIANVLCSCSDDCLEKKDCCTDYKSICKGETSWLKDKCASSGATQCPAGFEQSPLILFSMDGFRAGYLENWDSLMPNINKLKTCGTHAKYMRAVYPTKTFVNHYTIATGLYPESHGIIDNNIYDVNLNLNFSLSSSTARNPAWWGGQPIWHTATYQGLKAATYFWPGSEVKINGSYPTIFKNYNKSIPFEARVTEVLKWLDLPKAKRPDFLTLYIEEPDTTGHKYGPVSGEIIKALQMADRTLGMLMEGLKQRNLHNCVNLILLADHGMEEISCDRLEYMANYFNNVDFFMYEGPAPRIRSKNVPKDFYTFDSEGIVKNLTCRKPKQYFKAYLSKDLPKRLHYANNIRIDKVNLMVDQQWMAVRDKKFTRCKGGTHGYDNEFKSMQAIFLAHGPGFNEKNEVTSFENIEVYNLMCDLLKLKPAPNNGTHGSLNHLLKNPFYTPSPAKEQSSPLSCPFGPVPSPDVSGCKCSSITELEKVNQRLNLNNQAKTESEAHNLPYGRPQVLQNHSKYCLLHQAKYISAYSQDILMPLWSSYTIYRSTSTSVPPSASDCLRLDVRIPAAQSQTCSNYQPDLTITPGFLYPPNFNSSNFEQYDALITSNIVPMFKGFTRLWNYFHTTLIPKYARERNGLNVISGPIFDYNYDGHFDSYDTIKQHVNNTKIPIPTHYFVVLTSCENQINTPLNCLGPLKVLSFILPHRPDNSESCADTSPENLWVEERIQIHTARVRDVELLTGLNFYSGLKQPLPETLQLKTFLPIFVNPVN
The mark [6] stands for this setting: MTT, 48 h incubation, ± SD of three experiments.
Setting [7] is: normal cells, MTT, 48 h incubation, ± SD of three experiments.

Values after ≈ are worked out from the molar mass of the structure shown. “Also recorded” adds a separate entry of the source. Like-named read-outs stand apart in the source and are kept apart here.

In the case of `N.N.[Cl][Pt][Cl]` [Cisplatin, cis-diamineplatinum (II) dichloride, reference compound], in assay [1] (setting [6]), the “HepG-2 IC50” value was determined as 5 ± 1.5 µg/mL. The “VERO-B IC50” value in assay [2] (setting [7]) is recorded as 11 ± 1.3 µg/mL. For the same molecule, the “PC-3 IC50” value in assay [3] (setting [6]) is 5 ± 0.45 µg/mL. For the same molecule, the “HCT-116 IC50” value in assay [4] (setting [6]) turned out to be 12.6 ± 2 µg/mL.

Take `C=C(CO)[C@@H]1CC[C@]2(C)CC[C@]3(C)[C@H](CC[C@@H]4[C@@]5(C)CCC(OC(=O)/C=C/c6ccc(O)c(O)c6)C(C)(C)[C@@H]5CC[C@]43C)[C@@H]12` (stereo partly drawn) [Compound 6, 30-hydroxy lup-20(29)-ene 3β-caffeate]: the concentration for half-maximal inhibition (IC50) (in general, the concentration at which inhibition is half-maximal) in assay [1] (setting [6]) came to 68 ± 1.72 µg/mL (≈ 112 µM); in assay [2] (setting [7]), 68 ± 0.3 µg/mL (≈ 112 µM); in assay [3] (setting [6]), 68 ± 1.72 µg/mL (≈ 112 µM); in assay [4] (setting [6]), 68 ± 1.72 µg/mL (≈ 112 µM).

Consider `C=C(C=O)C1CCC2(C)CCC3(C)C(CCC4C5(C)CCC(OC(=O)C=Cc6ccc(O)c(O)c6)C(C)(C)C5CCC43C)C12` (stereo not drawn) [Compound 7, lup-20(29)-ene 3β-caffeate-30-al], for which the IC50 in assay [1] (setting [6]) was 62 ± 1.42 µg/mL (≈ 103 µM); in assay [2] (setting [7]), above 100 µg/mL; in assay [3] (setting [6]), 62 ± 1.42 µg/mL (≈ 103 µM); in assay [4] (setting [6]), 62 ± 1.42 µg/mL (≈ 103 µM).

For the molecule `CC[C@H](CC[C@@H](C)[C@H]1CC[C@H]2[C@@H]3CC=C4C[C@@H](O)CC[C@]4(C)[C@H]3CC[C@]12C)C(C)C` [Compound 9, β-sitosterol], the “antitumor activity (in words)” value in assay [5] was “no activity”. Further, the IC50 in assay [1], in assay [2] (48 h), in assay [3] and in assay [4] was above 100 µg/mL in each case.

With `CC[C@H](CC[C@@H](C)C1CCC2C3C(O)C=C4C[C@@H](O)CC[C@]4(C)C3CC[C@@]21C)C(C)C` (stereo partly drawn) [Compound 11, 7α-hydroxy-β-sitosterol], in assay [5], the “antitumor activity (in words)” value was “broad-spectrum activity”. Moreover, the half-maximal inhibitory concentration (IC50) was around 8 µg/mL (≈ 18.6 µM) in assay [1] (setting [6]), 70 ± 0.5 µg/mL (≈ 163 µM) in assay [2] (setting [7]), around 8 µg/mL (≈ 18.6 µM) in assay [3] (setting [6]) and around 8 µg/mL (≈ 18.6 µM) in assay [4] (setting [6]). In the assay with Vero cell line, the “wound healing of normal cells” value is “able to heal the wound at a rate closer to that observed for untreated cells; also recorded: wound size decreased”. In addition, the inhibition – broadly, the drop in the measured response relative to a control, in per cent – at 2 µM at phosphodiesterase I (read-out: phosphodiesterase I enzyme inhibition) is 80.2%.

As for `CC(=O)[C@@H]1CC[C@]2(C)CC[C@]3(C)[C@H](CC[C@@H]4[C@@]5(C)CC[C@H](O)C(C)(C)[C@@H]5CC[C@]43C)[C@@H]12` [Compound 2, 30-norlup-3β-ol-20-one], the IC50 in assay [1] (setting [6]), in assay [2] (setting [7]), in assay [3] (setting [6]) and in assay [4] (setting [6]) was above 100 µg/mL in each case.

As to `C=C(C)[C@@H]1CC[C@]2(C)CC[C@]3(C)[C@H](CC[C@@H]4[C@@]5(C)CCC(OC(=O)/C=C/c6ccc(O)c(O)c6)C(C)(C)[C@@H]5CC[C@]43C)[C@@H]12` (some centres unmarked) [Compound 5, lupeol caffeate], the IC50 in assay [1] (setting [6]) worked out at 59 ± 0.45 µg/mL (≈ 100 µM); in assay [2] (setting [7]), 81 ± 1.1 µg/mL (≈ 138 µM); in assay [3] (setting [6]), 59 ± 0.45 µg/mL (≈ 100 µM); in assay [4] (setting [6]) it was 59 ± 0.45 µg/mL (≈ 100 µM).

Consider `C=C(C)[C@@H]1CC[C@]2(C)CC[C@]3(C)[C@@H](CC[C@@H]4[C@@]5(C)C=CC(=O)C(C)(C)[C@@H]5CC[C@]43C)[C@@H]12` [Compound 3, ∆^1-lupenone], for which the half-inhibitory concentration (IC50) in assay [1] (setting [6]), in assay [2] (setting [7]), in assay [3] (setting [6]) and in assay [4] (setting [6]) was above 100 µg/mL each time.

Regarding `C=C(CO)[C@@H]1CC[C@]2(C)CC[C@]3(C)[C@H](CC[C@@H]4[C@@]5(C)CC[C@H](O)C(C)(C)[C@@H]5CC[C@]43C)[C@@H]12` [Compound 4, lup-20(29)-ene-3β,30-diol], the IC50 in assay [1] (setting [6]), in assay [2] (setting [7]), in assay [3] (setting [6]) and in assay [4] (setting [6]) was above 100 µg/mL throughout.

In the case of `CC[C@H](CC[C@@H](C)C1CCC2C3C(=O)C=C4C[C@@H](O)CC[C@]4(C)C3CC[C@@]21C)C(C)C` (stereo partly drawn) [Compound 13, 7-keto-β-sitosterol], the “antitumor activity (in words)” value in assay [5] is “moderate activity”. In addition, the half-maximal inhibitory concentration (IC50) came to 22.3 ± 0.24 µg/mL (≈ 52 µM) in assay [1] (setting [6]), 64 ± 1.1 µg/mL (≈ 149 µM) in assay [2] (setting [7]), 22.3 ± 0.24 µg/mL (≈ 52 µM) in assay [3] (setting [6]) and 22.3 ± 0.24 µg/mL (≈ 52 µM) in assay [4] (setting [6]).

As for `C=C(C)[C@@H]1CC[C@]2(C)CC[C@]3(C)[C@H](CC[C@@H]4[C@@]5(C)CC[C@H](O)C(C)(C)[C@@H]5CC[C@]43C)[C@@H]12` [Compound 1, lupeol], the half-inhibitory concentration (IC50) in assay [1] (setting [6]), in assay [2] (setting [7]), in assay [3] (setting [6]) and in assay [4] (setting [6]) was above 100 µg/mL each time.

Consider `O=C(O)CN(CCN(CC(=O)O)CC(=O)O)CC(=O)O` [EDTA, reference compound], for which the half-inhibitory concentration (IC50) on phosphodiesterase I (positive control, read-out: IC50 ± SD, phosphodiesterase I) amounted to 274 ± 0.007 µM.
